{
  "source": "patent US20240116889A1",
  "about": "“ANTIVIRAL COMPOUNDS AND METHODS” (priority 2019, published 2024)",
  "key": {"[1]": {"system": "2009 pandemic (pdm) H1N1 virus", "experiment": "2009 pandemic (pdm) H1N1 virus replication in Calu-3 cells (M-gene RNA, RT-qPCR)", "type": "cell-based, influenza A virus"}, "USSR H1N1 virus [2]": {"system": "USSR H1N1 virus", "type": "cell-based, influenza A virus (A/USSR/77)"}, "RSV [3]": {"system": "RSV", "conditions": "human bronchial epithelial cell line; TG 0.1 uM for 24 h before infection; cited from earlier work"}, "SARS-CoV-2 [4]": {"system": "SARS-CoV-2", "experiment": "SARS-CoV-2 replication in Calu-3 cells (RT-qPCR of media)", "type": "cell-based"}, "HEp2 cells": {"system": "HEp2 cells", "experiment": "Cell viability of HEp2 cells (CellTiter-Glo)", "type": "cell-based, human", "conditions": "HEp-2 cells", "description": "Spun supernatants were collected to infect HEp2 cells for 24 h for immuno-detection of RSV. TG doses used to prime HEp2 cells were non-toxic. 30 min TG treated cells were rinsed, cultured overnight and subjected to cell viability assays (CellTiter-Glo® Luminescent Cell Viability Assay kit, Promega. Results are shown in FIG. 22."}, "hCoV OC43 [5]": {"system": "hCoV OC43", "experiment": "hCoV OC43 production in NHBE cells (RT-qPCR)", "type": "cell-based, human coronavirus OC43", "conditions": "30 min pre-infection priming, 48 and 72 hpi", "description": "Cells were primed with TG as indicated for 30 min, washed twice with PBS and infected with hCoV OC43 at 0.01 MOI (based on FFAs) for 3 h; after which cells were again washed twice with PBS and incubated in serum-free Promocell media (supplemented with 0.1 μg/ml TPCK trypsin). Culture media were harvested at 48 and 72 hpi for viral RNA extraction followed by one-step reverse transcription qPCR to detect the relative copy number of OC43 replicase polyprotein lab RNA. Indicated significance using Tukey's multiple comparisons test and percentage viral RNA reduction relative to corresponding DMSO control."}, "USSR H1N1 virus [6]": {"system": "USSR H1N1 virus", "type": "cell-based, influenza A virus (A/USSR/77)", "conditions": "PTECs; 0.1 μM TG for 30 min"}, "SARS-CoV-2 [7]": {"system": "SARS-CoV-2", "experiment": "SARS-CoV-2 replication in Vero E6 cells (RT-qPCR of media)", "type": "cell-based"}, "RSV [8]": {"system": "RSV", "experiment": "RSV replication in A549 cells (pfu/ml by immunostaining)", "type": "cell-based, human respiratory syncytial virus", "conditions": "30 min TG priming, 72 h infection", "description": "FIG. 37—Pre- and post-infection priming with TG 24 h inhibited RSV replication. […] (A) In pre-infection, cells primed with TG or control DMSO, washed with PBS, cultured in fresh media for 24 h and infected with RSV at 0.1 MOI for 2 h followed by media replacement with fresh DMEM containing 2% FCS. (B) In post-infection, cells were first infected similarly for 24 h, then primed with TG or DMSO for 30 min, washed with PBS and replaced with fresh media. In both treatment groups (A and B), cells were infected for a total period of 72 h, after which spun supernatants were used to determine progeny virus output (pfu/ml) on HEp2 cells by immunostaining with mouse anti-RSV (F27) antibody. HEp2 cells were more permissive to RSV replication than A549 cells. (C) Comparison of TG and ribavirin (Riba) in the inhibition of RSV replication. HEp-2 cells were primed with TG, Riba or control DMSO as indicated for 30 min, rinsed with PBS and infected with RSV. Riba was continuously present during infection. Four days post-infection, media were sampled for the detection of viral M-gene RNA by one-step reverse transcription-qPCR. Unless otherwise indicated, significance (based on one-way ANOVA with Tukey's multiple comparison test) is relative to DMSO control."}, "USSR H1N1 virus [9]": {"system": "USSR H1N1 virus", "type": "cell-based, influenza A virus (A/USSR/77)", "remark": "listed apart in the source"}, "hCoV OC43 [10]": {"system": "hCoV OC43", "experiment": "hCoV OC43 replication in A549 cells (RT-qPCR)", "type": "cell-based, human coronavirus OC43"}, "[11]": {"system": "PR8 H1N1 virus (A/Puerto Rico/8/1934)", "type": "in vivo, BALB/c mice"}, "[12]": {"experiment": "Tolerability of TG given to mice by oral gavage", "conditions": "1 mg/kg"}, "pdm H1N1 virus": {"system": "pdm H1N1 virus", "type": "cell-based, influenza A virus (A/California/07/2009)", "conditions": "NPTr cells; 0.5 μM TG 30 min; […]"}, "influenza A virus": {"system": "influenza A virus", "conditions": "MDCK cells; 0.001 μM TG over 48 h of infection; cited from earlier work"}, "USSR H1N1 virus [13]": {"system": "USSR H1N1 virus", "experiment": "USSR H1N1 replication in A549 cells (M-gene RNA, RT-qPCR)", "type": "cell-based, influenza A virus (A/USSR/77)"}, "USSR H1N1 virus [14]": {"system": "USSR H1N1 virus", "type": "cell-based, influenza A virus (A/USSR/77)", "remark": "listed apart in the source"}, "USSR H1N1 virus [15]": {"system": "USSR H1N1 virus", "experiment": "USSR H1N1 M-gene RNA in media of NPTr cells primed with stored or oil-mixed TG (RT-qPCR)", "type": "cell-based, influenza A virus (A/USSR/77)", "conditions": "NPTr cells primed at 0.5 μM TG"}, "[16]": {"system": "extracellular Ca^2+ influx", "experiment": "Intracellular Ca2+ monitoring assay (Fluo-8) in NPTr cells", "type": "cell-based, pig", "conditions": "non-toxic doses (CPA up to 5 μM; TG 10 min)"}, "DDIT3, HSPA5 and HSP90B1": {"system": "DDIT3, HSPA5 and HSP90B1", "type": "cell-based, pig", "conditions": "NPTr cells, porcine myoblasts and NHBE cells; non-toxic TG, 30 min"}, "RIG-I, OAS1 and PKR": {"system": "RIG-I, OAS1 and PKR", "type": "cell-based, pig", "conditions": "NPTr cells (TG also NHBE cells and myoblasts); priming before or during infection"}, "[17]": {"conditions": "NPTr cells, 30 min priming, […]"}},
  "note": "Like-named read-outs stand apart in the source and are kept apart here.",
  "data": [
    {"smiles": "C/C=C(/C)C(=O)O[C@H]1C(C)=C2[C@H]([C@@H]1OC(=O)CCCCCCC)[C@@](C)(OC(C)=O)C[C@H](OC(=O)CCC)[C@@]1(O)[C@H]2OC(=O)[C@@]1(C)O", "note": "[TG, thapsigargin]", "values": [
      {"measurement": "pdm 2009 H1N1, separate infection and co-infection with SARS-CoV-2", "setting": "[1]", "result": "blocked"},
      {"measurement": "progeny virus output vs DMSO control", "setting": "USSR H1N1 virus [2]", "result": "marked reduction in virus output"},
      {"measurement": "virus production, TG before vs 6 h after infection", "setting": "USSR H1N1 virus [2]; myoblasts, 0.5 μM TG 30 min, […]", "result": "comparable reduction in virus production"},
      {"measurement": "duration of the antiviral state after TG exposure", "setting": "USSR H1N1 virus [2]; myoblasts, 1.0 μM TG for 1 h", "result": "at least 24 h"},
      {"measurement": "cell viability after priming", "setting": "NHBE cells; 30 min priming at doses used for infection studies", "result": "no cytotoxic effect on cell viability"},
      {"measurement": "cell viability on continuous exposure", "setting": "NHBE cells; continuous 5 nM TG for 24 h", "result": "no reduction in cell viability"},
      {"measurement": "CC50", "setting": "NHBE cells; read-out: cellular cytotoxicity CC50, 30 min priming, viability after 24 h", "result": 33.5, "unit": "µM"},
      {"measurement": "RSV replication by RT-PCR", "setting": "RSV [3]", "result": "did not show reduction in virus replication"},
      {"measurement": "SARS-CoV-2, separate infection and co-infection with pdm 2009 H1N1", "setting": "SARS-CoV-2 [4]", "result": "blocked"},
      {"measurement": "SARS-CoV-2 replication, post-infection priming", "setting": "SARS-CoV-2 [4]", "result": "just as effective in virus inhibition as pre-infection TG priming"},
      {"measurement": "SARS-CoV-2 replication", "setting": "SARS-CoV-2 [4]; Calu-3 cells, […], HC primed and continuously present", "result": "highly inhibitory"},
      {"measurement": "CC50", "setting": "HEp2 cells", "result": 90, "unit": "µM"},
      {"measurement": "hCoV OC43 production", "setting": "hCoV OC43 [5]", "result": "reduced hCoV OC43 production in a dose-dependent manner"},
      {"measurement": "duration of the antiviral state after TG exposure", "setting": "USSR H1N1 virus [6]", "result": "at least 24 h"},
      {"measurement": "SARS-CoV-2 replication", "setting": "SARS-CoV-2 [7]", "result": "lack of effectiveness"},
      {"measurement": "RSV replication, priming 24 h before or 24 h post-infection", "setting": "RSV [8]", "result": "strongly inhibited RSV replication"},
      {"measurement": "progeny virus output vs DMSO control", "setting": "USSR H1N1 virus [9]", "result": "marked reduction in virus output"},
      {"measurement": "progeny virus output", "setting": "USSR H1N1 virus [9]; NHBE cells, 5 nM TG for 30 min", "result": "dramatic reduction in progeny virus output"},
      {"measurement": "virus production, TG before vs 6 h after infection", "setting": "USSR H1N1 virus [9]; NHBE cells, 0.01 μM TG 30 min, […]", "result": "comparable reduction in virus production"},
      {"measurement": "Selectivity index (CC50/IC50)", "setting": "USSR H1N1 virus [9]; NHBE cells, 30 min priming, […]", "result": 8572.89},
      {"measurement": "IC50", "setting": "USSR H1N1 virus [9]; NHBE cells, 30 min priming, […], read-out: USSR virus inhibitory concentration IC50", "result": 0.00391, "unit": "µM"},
      {"measurement": "hCoV OC43, separate infection and co-infection with USSR H1N1", "setting": "hCoV OC43 [10]", "result": "blocked"},
      {"measurement": "blocking of hCoV OC43 replication, comparison with RDV", "setting": "hCoV OC43 [10]; A549 cells, TG 30 min priming vs continuous RDV, […]", "result": "superior to remdesivir (RDV)"},
      {"measurement": "body weight of surviving treated mice", "setting": "[11]; TG 30 ng by gavage daily", "result": "progressive weight gain from 9 dpi"},
      {"measurement": "PR8 virus loads in lungs vs control mice", "setting": "[11]; TG 30 ng by gavage daily, […]", "result": "significantly lower"},
      {"measurement": "gross lung pathology", "setting": "[11]; TG 30 ng by gavage daily, […]", "result": "more localised to the vicinity of virus entry site"},
      {"measurement": "survival of infected mice", "setting": "[11]; mouse, in vivo", "result": 40, "unit": "%"},
      {"measurement": "clinical adverse effects", "setting": "[12]", "result": "no detectable clinical adverse effects"},
      {"measurement": "virus production, TG before vs 6 h after infection", "setting": "pdm H1N1 virus", "result": "comparable reduction in virus production"},
      {"measurement": "progeny influenza virus output", "setting": "influenza A virus", "result": "increase progeny influenza virus output"},
      {"measurement": "USSR H1N1, separate infection and co-infection with hCoV OC43", "setting": "USSR H1N1 virus [13]", "result": "blocked"},
      {"measurement": "blocking of USSR H1N1 replication, comparison with RDV", "setting": "USSR H1N1 virus [13]; A549 cells, TG 30 min priming vs continuous RDV", "result": "superior to remdesivir (RDV)"},
      {"measurement": "progeny virus output vs DMSO control", "setting": "USSR H1N1 virus [14]", "result": "marked reduction in virus output"},
      {"measurement": "virus reduction", "setting": "USSR H1N1 virus [14]; NPTr cells pre-primed with 0.1 μM TG for 30 min", "result": 82, "unit": "%"},
      {"measurement": "virus reduction", "setting": "USSR H1N1 virus [14]; NPTr cells pre-primed with 0.5 μM TG for 30 min", "result": 93, "unit": "%"},
      {"measurement": "duration of the antiviral state after TG exposure", "setting": "USSR H1N1 virus [14]; NPTr cells, 0.5 μM TG for 30 min", "result": "at least 24 h"},
      {"measurement": "IC50", "setting": "USSR H1N1 virus [14]; [17]", "result": 0.00712, "unit": "µM"},
      {"measurement": "Selectivity index (CC50/IC50)", "setting": "USSR H1N1 virus [14]; [17]", "result": 7952.21},
      {"measurement": "antiviral function after mixing TG-DMSO stock with olive oil or sesame oil", "setting": "USSR H1N1 virus [15]; 1:1 volume ratio, 24 h at room temperature", "result": "did not diminish TG antiviral function"},
      {"measurement": "antiviral activity after incubation of TG stock solution on its own", "setting": "USSR H1N1 virus [15]; 24 h at RT, relative to freshly thawed TG", "result": "some reduction in antiviral activity"},
      {"measurement": "extracellular Ca^2+ influx", "setting": "[16]", "result": "modest Ca^2+ influx"},
      {"measurement": "expression of ER stress associated genes", "setting": "DDIT3, HSPA5 and HSP90B1", "result": "consistently elevated ER stress associated genes"},
      {"measurement": "expression of type I IFN associated genes in response to infection", "setting": "RIG-I, OAS1 and PKR", "result": "consistently increased the expression of type I IFN associated genes"}
    ]}
  ]
}
